Measured values as given in patent US20240116892A1, “HETEROCYCLIC AMIDE AND UREA COMPOUNDS AS JAK2 INHIBITORS” (Ajax Therapeutics, Inc., priority 2022, published 2024).

Molecular target: JAK2 (JH1 domain-catalytic, Y1007F, Y1008F) kinase (Homo sapiens (Human), UniProt O60674, Y1007F/Y1008F)
Assay: JAK2 JH1 Domain Binding Assay
Details: qPCR readout
Outline: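 Competitive binding format: test compound, DNA-tagged JAK2 JH1 (Y1007F/Y1008F; HEK293-expressed NFkB fusion) and ligand-coated magnetic beads incubated 1 h at room temperature. Kinase retained on beads released with 0.5 μmol/L non-biotinylated ligand, then measured by qPCR.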

Sequence of JAK2 (JH1 domain-catalytic, Y1007F, Y1008F) kinase (O60674 849-1124 Y1007F/Y1008F): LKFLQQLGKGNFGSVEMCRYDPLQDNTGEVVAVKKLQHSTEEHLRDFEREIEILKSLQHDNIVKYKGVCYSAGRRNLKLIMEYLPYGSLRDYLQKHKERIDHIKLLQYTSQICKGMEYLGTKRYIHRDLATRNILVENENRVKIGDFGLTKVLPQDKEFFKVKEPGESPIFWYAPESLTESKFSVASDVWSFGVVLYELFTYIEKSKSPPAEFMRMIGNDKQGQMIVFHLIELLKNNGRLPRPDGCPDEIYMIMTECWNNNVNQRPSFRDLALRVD

| Molecule | Kd [nM] |
| --- | --- |
| CN(C(=O)Nc1cc(C(F)(F)F)ccn1)[C@@H]1CCN(c2cnc3[nH]ncc3c2)C[C@H]1F [Example I-175, 1-((3R,4R)-3-fluoro-1-(1H-pyrazolo[3,4-b]pyridin-5-yl)piperidin-4-yl)-1-methyl-3-(4-(trifluoromethyl)pyridin-2-yl)urea] | < 10 |
| CN(C(=O)Nc1cc(C(F)(F)F)ccn1)[C@H]1CCN(c2cnc3[nH]ncc3c2)C[C@@H]1F [Example I-176, 1-((3S,4S)-3-fluoro-1-(1H-pyrazolo[3,4-b]pyridin-5-yl)piperidin-4-yl)-1-methyl-3-(4-(trifluoromethyl)pyridin-2-yl)urea] | < 10 |
| Cc1cc(C(F)(F)F)cc(NC(=O)N(C)[C@@H]2CCN(c3cnc4[nH]ncc4c3)C[C@H]2F)n1 [Example I-177, 1-((3R,4R)-3-fluoro-1-(1H-pyrazolo[3,4-b]pyridin-5-yl)piperidin-4-yl)-1-methyl-3-(6-methyl-4-(trifluoromethyl)pyridin-2-yl)urea] | < 10 |
| Cc1cc(C(F)(F)F)cc(NC(=O)N(C)[C@H]2CCN(c3cnc4[nH]ncc4c3)C[C@@H]2F)n1 [Example I-178, 1-((35,4S)-3-fluoro-1-(1H-pyrazolo[3,4-b]pyridin-5-yl)piperidin-4-yl)-1-methyl-3-(6-methyl-4-(trifluoromethyl)pyridin-2-yl)urea] | < 10 |
| CN(C(=O)Nc1cc(C(F)(F)F)cn(C)c1=O)C12CC(c3ccc(NC(=O)C4CC4)nc3)(C1)C2 [Example I-179, N-(5-(3-(1-methyl-3-(1-methyl-2-oxo-5-(trifluoromethyl)-1,2-dihydropyridin-3-yl)ureido)bicyclo[1.1.1]pentan-1-yl)pyridin-2-yl)cyclopropanecarboxamnide] | 10 to 50 |
| CN(C(=O)Nc1cc(C(F)(F)F)n([C@@H]2CCOC2)n1)C1CCN(c2cnc3[nH]ncc3c2)CC1 [Example I-180, (R)-1-(1-(1H-pyrazolo[3,4-b]pyridin-5-yl)piperidin-4-yl)-1-methyl-3-(1-(tetrahydrofuran-3-yl)-5-(trifluoromethyl)-1H-pyrazol-3-yl)urea] | < 10 |
| CN(C(=O)Nc1cc(C(F)(F)F)n([C@H]2CCOC2)n1)C1CCN(c2cnc3[nH]ncc3c2)CC1 [Example I-181, (S)-1-(1-(1H-pyrazolo[3,4-b]pyridin-5-yl)piperidin-4-yl)-1-methyl-3-(1-(tetrahydrofuran-3-yl)-5-(trifluoromethyl)-1H-pyrazol-3-yl)urea] | < 10 |
| CCN1CCN(Cc2ccc(NC(=O)N(C)C3CCN(c4cnc5[nH]nc(OC)c5c4)CC3)cc2C(F)(F)F)CC1 [Example I-182, 3-(4-((4-ethylpiperazin-1-yl)methyl)-3-(trifluoromethyl)phenyl)-1-(1-(3-methoxy-1H-pyrazolo[3,4-b]pyridin-5-yl)piperidin-4-yl)-1-methylurea] | < 10 |
| (S)-1-methyl-3-(1-methyl-2-oxo-5-(trifluoromethyl)-1,2-dihydropyridin-3-yl)-1-(3-(3-((tetrahydrofuran-3-yl)oxy)-1H-pyrazolo[3,4-b]pyridin-5-yl)bicyclo[1.1.1]pentan-1-yl)urea and (R)-1-methyl-3-(1-methyl-2-oxo-5-(trifluoromethyl)-1,2-dihydropyridin-3-yl)-1-(3-(3-((tetrahydrofuran-3-yl)oxy)-1H-pyrazolo[3,4-b]pyridin-5-yl)bicyclo[1.1.1]pentan-1-yl)urea [Example I-166-a] | 50 to 1000 |
| (S)-1-methyl-3-(1-methyl-2-oxo-5-(trifluoromethyl)-1,2-dihydropyridin-3-yl)-1-(3-(3-((tetrahydrofuran-3-yl)oxy)-1H-pyrazolo[3,4-b]pyridin-5-yl)bicyclo[1.1.1]pentan-1-yl)urea and (R)-1-methyl-3-(1-methyl-2-oxo-5-(trifluoromethyl)-1,2-dihydropyridin-3-yl)-1-(3-(3-((tetrahydrofuran-3-yl)oxy)-1H-pyrazolo[3,4-b]pyridin-5-yl)bicyclo[1.1.1]pentan-1-yl)urea [Example I-166-b] | ≥ 5000 |
